Assay results: US20240174611A1 (Rappta Therapeutics Oy, priority 2021, published 2024)

Test system: LNCaP cells
Test: LNCaP cell viability assay (MTS)
Type: cell-based
Settings: LNCaP cell line, 48 hours treatment
Description: LNCaP cell line was used for the cell viability assay. LNCaP cells were plated in 96-well plates at a density of 5000 cells per well. After 24 hours of plating, the cells were treated with increasing doses of compound 1-100 ranging from 1 μM to 80 μM. Relative cell numbers were analyzed after 48 hours using 3-(4,5-dimethylthiazol-2-yl)-5-(3-carboxymethoxyphenyl)-2-(4-sulfophenyl)-2H-tetrazolium (MTS) assay (Promega) according to the manufacturer's instructions.
The cell viability data was analyzed with GraphPad Prism software. The values were log transformed and analyzed with non-linear regression (curve-fit) using log(inhibitor) vs. response—variable slope (four parameters) and constraining the bottom to equal zero. Unless otherwise indicated, the GI50 values provided in Table 35 correspond to the LNCaP cell viability assays.

SMILES | GI50 (Homo sapiens, LNCaP, 48 h) [µM] | GI50 [µM]
COC(=O)[C@@H]1Cc2ccccc2[C@@H]1NS(=O)(=O)c1ccc(OC(F)(F)F)cc1 (racemic) [Compound 4] | 40.4 | –
CN1CC[C@@H](NS(=O)(=O)c2ccc(OC(F)(F)F)cc2)[C@@H]1c1ccc(Cl)cc1 (racemic) [Compound 9] | 51.5 | –
CC(C)C1N(Cc2ccccc2)CC12C[C@@H](O)[C@H](NS(=O)(=O)c1ccc(OC(F)(F)F)cc1)C2 (mixture of isomers) [Compound 31] | 45 | –
O=S(=O)(N[C@@H]1C[C@H]1c1ccc(Cl)cc1)c1ccc(OC(F)(F)F)cc1 (racemic) [Compound 42, rac N-((1R,2S)-2-(4-chlorophenyl)cyclopropyl)-4-(trifluoromethoxy)benzenesulfonamide] | 67.2 | –
O=S(=O)(N[C@@]1(c2ccc(Cl)cc2)CNC[C@@H]1F)c1ccc(OC(F)(F)F)cc1 (racemic) [Compound 79, N-((3S,4S)-3-(4-chlorophenyl)-4-fluoropyrrolidin-3-yl)-4-(trifluoromethoxy)benzenesulfonamide] | 55.8 | –
O=S(=O)(NC1CCCC1c1ccc(Cl)c(Cl)c1)c1ccc(OC(F)(F)F)cc1 (single isomer, unassigned) [Compound 44, N-(2-(3,4-dichlorophenyl)cyclopentyl)-4-(trifluoromethoxy)benzenesulfonamide] | – | 45.4
COc1ccc(Cl)cc1N1CCC(NS(=O)(=O)c2ccc(OC(F)(F)F)cc2)C1 (stereo not shown) [Compound 2, N-(1-(5-chloro-2-methoxyphenyl)pyrrolidin-3-yl)-4-(trifluoromethoxy)benzene-sulfonamide] | 67.4 | –
O=S(=O)(NC1CCN(c2cccc(Br)c2)C1)c1ccc(OC(F)(F)F)cc1 (stereo not shown) [Compound 3] | 77.1 | –
O=S(=O)(NC1CCCN(c2ccc(Cl)c(Cl)c2)C1)c1ccc(OC(F)(F)F)cc1 (stereo not shown) [Compound 5, N-(1-(3,4-dichlorophenyl)piperidin-3-yl)-4-(trifluoromethoxy)benzene-sulfonamide] | 52.8 | –
O=S(=O)(NC1CCN(c2cccc(OC(F)(F)F)c2)C1)c1ccc(OC(F)(F)F)cc1 (stereo not shown) [Compound 6] | 59.3 | –
O=S(=O)(NC1CCCCC1Oc1ccc(F)cc1)c1ccc(OC(F)(F)F)cc1 (stereo not shown) [Compound 7, N-(2-(4-fluorophenoxy)cyclohexyl)-4-(trifluoromethoxy)benzene-sulfonamide] | 65.9 | –
CC1CC(NS(=O)(=O)c2ccc(OC(F)(F)F)cc2)CCC1(C)C (stereo not shown) [Compound 8, 4-(trifluoromethoxy)-N-(3,4,4-trimethylcyclohexyl)benzene-sulfonamide] | 73.3 | –
O=S(=O)(NC1CCOc2c(F)ccc(F)c21)c1ccc(OC(F)(F)F)cc1 (stereo not shown) [Compound 10, N-(5,8-difluorochroman-4-yl)-4-(trifluoromethoxy)benzene-sulfonamide] | 67.5 | –
O=S(=O)(NC1CCc2c(Cl)cc(Cl)cc21)c1ccc(OC(F)(F)F)cc1 (stereo not shown) [Compound 11, N-(4,6-dichloro-2,3-dihydro-1H-inden-1-yl)-4-(trifluoromethoxy)benzene-sulfonamide] | 44.2 | –
O=S(=O)(NC1CCCc2cc(Cl)ccc21)c1ccc(OC(F)(F)F)cc1 (stereo not shown) [Compound 12, N-(6-chloro-1,2,3,4-tetrahydronaphthalen-1-yl)-4-(trifluoromethoxy)benzene-sulfonamide] | 49 | –
O=S(=O)(NC1CCCCCC1c1ccccc1)c1ccc(OC(F)(F)F)cc1 (stereo not shown) [Compound 13, N-(2-phenylcycloheptyl)-4-(trifluoromethoxy)benzene-sulfonamide] | 55.6 | –
O=S(=O)(NC1(c2cccc(Cl)c2)CCCC1)c1ccc(OC(F)(F)F)cc1 [Compound 14, N-(1-(3-chlorophenyl)cyclopentyl)-4-(trifluoromethoxy)benzene-sulfonamide] | 42.8 | –
COc1cccc(C2(NS(=O)(=O)c3ccc(OC(F)(F)F)cc3)CCCC2)c1 [Compound 15] | 49.2 | –
CCC(C(=O)N1CCC(NS(=O)(=O)c2ccc(OC(F)(F)F)cc2)CC1)c1ccccc1 (stereo not shown) [Compound 17, N-(1-(2-phenylbutanoyl)piperidin-4-yl)-4-(trifluoromethoxy)benzene-sulfonamide] | 58 | –
COC(=O)C#CC1(NS(=O)(=O)c2ccc(OC(F)(F)F)cc2)CCCC1 [Compound 19] | 43 | –
CCOC(=O)C1(NS(=O)(=O)c2ccc(OC(F)(F)F)cc2)CCc2ccccc21 (stereo not shown) [Compound 20] | 60 | –
O=S(=O)(NC1CCC2CN(Cc3ccccc3)CC21)c1ccc(OC(F)(F)F)cc1 (stereo not shown) [Compound 22] | 70 | –
O=S(=O)(NC1Cc2[nH]ncc2C(C(F)(F)F)C1)c1ccc(OC(F)(F)F)cc1 (stereo not shown) [Compound 26] | 53 | –
CCC1CC1(NS(=O)(=O)c1ccc(OC(F)(F)F)cc1)c1cccc(C)c1 (stereo not shown) [Compound 28, N-(2-ethyl-1-(m-tolyl)cyclopropyl)-4-(trifluoromethoxy)benzene-sulfonamide] | 62 | –
COc1ccc(C2(NS(=O)(=O)c3ccc(OC(F)(F)F)cc3)CCOCC2)cc1F [Compound 29, N-(4-(3-fluoro-4-methoxyphenyl)tetrahydro-2H-pyran-4-yl)-4-(trifluoromethoxy)benzene-sulfonamide] | 39 | –
Cc1noc(C)c1S(=O)(=O)NCC1(NS(=O)(=O)c2ccc(OC(F)(F)F)cc2)CCCCC1 [Compound 33] | 53 | –
O=S(=O)(NC1(c2ccccc2)CCN(Cc2ccccc2)C1)c1ccc(OC(F)(F)F)cc1 (stereo not shown) [Compound 35, N-(1-benzyl-3-phenylpyrrolidin-3-yl)-4-(trifluoromethoxy)benzene-sulfonamide] | 38.7 | –
O=S(=O)(NC1(c2ccccc2)CCNC1)c1ccc(OC(F)(F)F)cc1 (stereo not shown) [Compound 36, N-(3-phenylpyrrolidin-3-yl)-4-(trifluoromethoxy)benzene-sulfonamide] | 41.9 | –

Further molecules by falling GI50 (Homo sapiens, LNCaP, 48 h), results first:

GI50 (Homo sapiens, LNCaP, 48 h) [µM] | GI50 [µM] | SMILES
38.1 | – | CC(=O)Nc1ccc(S(=O)(=O)N2CCC(NS(=O)(=O)c3ccc(OC(F)(F)F)cc3)CC2)cc1 [Compound 1]
37.5 | – | O=S(=O)(NC1CCCC1c1ccc(Cl)c(Cl)c1)c1ccc(OC(F)(F)F)cc1 (single isomer, unassigned) [Compound 43, N-(2-(3,4-dichlorophenyl)cyclopentyl)-4-(trifluoromethoxy)benzenesulfonamide]
37.4 | – | O=S(=O)(NC1CC2(CCCC2)Oc2ccccc21)c1ccc(OC(F)(F)F)cc1 (stereo not shown) [Compound 18, N-(spiro[chromane-2,1′-cyclopentan]-4-yl)-4-(trifluoromethoxy)benzene-sulfonamide]
34.4 | – | O=C1C(NS(=O)(=O)c2ccc(OC(F)(F)F)cc2)CCCN1Cc1cccc(C(F)(F)F)c1 (stereo not shown) [Compound 16]
33 | – | O=S(=O)(N[C@@H]1CCN(C2CC2)[C@H]1c1ccc(F)c(F)c1)c1ccc(OC(F)(F)F)cc1 (racemic) [Compound 34]
30 | – | COC(=O)C12CC3(C)CC(C)(CC(NS(=O)(=O)c4ccc(OC(F)(F)F)cc4)(C3)C1)C2 [Compound 21]
30 | – | O=C1CCC(NS(=O)(=O)c2ccc(OC(F)(F)F)cc2)c2ccc(OC(F)F)cc21 (stereo not shown) [Compound 25, N-(6-(difluoromethoxy)-4-oxo-1,2,3,4-tetrahydronaphthalen-1-yl)-4-(trifluoromethoxy)benzene-sulfonamide]
30 | – | CCOc1cc(CN2CCC(NS(=O)(=O)c3ccc(OC(F)(F)F)cc3)CC2)ccc1O [Compound 30, N-(1-(3-ethoxy-4-hydroxybenzyl)piperidin-4-yl)-4-(trifluoromethoxy)benzene-sulfonamide]
30 | – | CC(C)(C)OC(=O)N1CCC(CF)(NS(=O)(=O)c2ccc(OC(F)(F)F)cc2)C1 (stereo not shown) [Compound 32]
26 | – | CC(C)(C)OC(=O)N1CCCC1C1(NS(=O)(=O)c2ccc(OC(F)(F)F)cc2)CC1 (stereo not shown) [Compound 23]
25.5 | – | O=C(OCc1ccccc1)N1CCC(NS(=O)(=O)c2ccc(OC(F)(F)F)cc2)(c2ccc(Cl)c(Cl)c2)C1 (stereo not shown) [Compound 40]
16 | – | CC(C)(C)OC(=O)N1CCC([C@@H]2C[C@H]2NS(=O)(=O)c2ccc(OC(F)(F)F)cc2)CC1 (racemic) [Compound 24]
16 | – | CC(C)(C)N1CCC(NS(=O)(=O)c2ccc(OC(F)(F)F)cc2)C1c1ccc(Cl)c(F)c1 (single isomer, unassigned; enantiomer 1) [Compound 37, trans N-(1-(tert-butyl)-2-(4-chloro-3-fluorophenyl)pyrrolidin-3-yl)-4-(trifluoromethoxy)benzene-sulfonamide enantiomer 1]
14 | – | O=S(=O)(NC1(c2ccc(Cl)cc2)CCNC1)c1ccc(OC(F)(F)F)cc1 (stereo not shown) [Compound 39, N-(3-(4-chlorophenyl)pyrrolidin-3-yl)-4-(trifluoromethoxy)benzene-sulfonamide]
12 | – | CC1(C)C[C@H](NS(=O)(=O)c2ccc(OC(F)(F)F)cc2)c2cc(F)ccc2O1 [Compound 27, (S)-N-(6-fluoro-2,2-dimethylchroman-4-yl)-4-(trifluoromethoxy)benzene-sulfonamide]
11 | – | O=S(=O)(NC1(c2ccc(Cl)cc2)CCNCC1)c1ccc(OC(F)(F)F)cc1 [Compound 45, N-(4-(4-chlorophenyl)piperidin-4-yl)-4-(trifluoromethoxy)benzenesulfonamide]
10.4 | – | O=S(=O)(N[C@@H]1CNC[C@@H]1c1ccc(Cl)c(Cl)c1)c1ccc(OC(F)(F)F)cc1 (racemic) [Compound 51, rac N-((3R,4R)-4-(3,4-dichlorophenyl)pyrrolidin-3-yl)-4-(trifluoromethoxy)benzenesulfonamide]
10.4 | – | O=S(=O)(NC1(c2ccc(Cl)c(Cl)c2)CCNC1)c1ccc(OC(F)(F)F)cc1 (stereo not shown) [Compound 41, N-(3-(3,4-dichlorophenyl)pyrrolidin-3-yl)-4-(trifluoromethoxy)benzene-sulfonamide]
